This is an account of results in patent publication US20220204493A1, “CRYSTALLINE FORM OF A BET-INHIBITOR AND MANUFACTURE THEREOF” (ORION CORPORATION, priority 2019, published 2022).

The nature of data set [1]: Relative stability study between crystalline form 1 and 2 (storage at stressed conditions, XRPD at time points). It counts as physicochemical. Here is the method:
The XRPD pattern of the crystalline form 1 of compound (I) was measured using a PANalytical X'Celerator θ-θ diffractometer with CuKα radiation (40 kV, 30 mA). The diffractometer was operated in reflection mode. The measurements were performed in the range of 3°-40° 2θ. 100-300 mg of the sample powder was placed in the sample holder and the surface was pressed. For comparison purposes, the XRPD pattern of an unmilled sample of crystalline form 1 and the XRPD pattern of a milled sample of crystalline form 1 are shown together in FIG. 3.
The XRPD pattern of the amorphic form and the crystalline form 2 of compound (I) were measured as above except that a small sample amounts (approximately 5-10 mg) were first placed in the centre of a zero-background sample holder and then gently spread to a thin layer.
(§1) Four samples of compound (I) in crystalline form 2 (with traces of form 1) prepared according to Example 10 were stored at stressed conditions. XRPD of each sample was recorded at initial time point and at further time points. Moreover, long term stability of crystalline form 1 of compound (I) at different storage conditions was studied.

Data set [2] is described as follows: Hygroscopicity of crystalline form 1. In kind it is physicochemical.
The nature of data set [3]: Long-term stability of crystalline form 1 at different storage conditions (XRPD). It counts as physicochemical. The protocol:
as §1

Consider `COc1cc2c(cc1-c1c(C)noc1C)cc(C)c(=O)n2Cc1ccccn1` [crystalline form 2, 6-(3,5-dimethylisoxazol-4-yl)-7-methoxy-3-methyl-1-(pyridin-2-ylmethyl)quinolin-2(1H)-one], for which the “Crystalline form found by XRPD” value in data set [1] (25 °C/RH 60 %, 2 weeks) was “II +”; in data set [1] (25 °C/RH 60 %, 4 weeks), “II +”; in data set [1] (25 °C/RH 60 %, 12 weeks), “II +”; in data set [1] (25 °C/RH 60 %, 24 weeks) it was “I +”; in data set [1] (25 °C/RH 60 %, initial) it was “II +”; in data set [1] (30 °C/RH 65 %, 2 weeks) it was “II +”. Besides, the “Crystalline form found by XRPD” value in data set [1] (30 °C/RH 65 %, 4 weeks) is listed as “II +”; in data set [1] (30 °C/RH 65 %, 12 weeks) it was “II +”; in data set [1] (30 °C/RH 65 %, 24 weeks) it was “I +”; in data set [1] (30 °C/RH 65 %, initial), “II +”; in data set [1] (40 °C/RH 75 %, 2 weeks), “II +”; in data set [1] (40 °C/RH 75 %, 4 weeks), “II +”. Moreover, the “Crystalline form found by XRPD” value in data set [1] (40 °C/RH 75 %, initial) was “II +”; in data set [1] (RT/RH 5 %, initial), “II +”. The “Time for transformation of form 2 to form 1” value in data set [1] (all studied conditions) was no more than 36 weeks.
With `COc1cc2c(cc1-c1c(C)noc1C)cc(C)c(=O)n2Cc1ccccn1` [Crystalline form 1, 6-(3,5-dimethylisoxazol-4-yl)-7-methoxy-3-methyl-1-(pyridin-2-ylmethyl)quinolin-2(1H)-one], the Hygroscopicity entry in data set [2] is listed as “low hygroscopicity”. Also, in data set [1] (all studied conditions), the “Relative stability of the crystalline forms” value is “more stable than form 2”. Also, the Physical stability entry in data set [3] is listed as “physically stable”. In data set [3] (25° C./RH 60 % and 40° C./RH 75 %), the “Long-term stability, changes by XRPD” value is recorded as “no changes were observed”. The “Long-term stability (stable up to; no changes by XRPD)” value in data set [3] (storage 25° C./RH 60 %) is listed as “Stable up to 24 months”; in data set [3] (storage 40° C./RH 75 %) it was “Stable up to 6 months”.
For orientation: melting point means the temperature, or range, at which the solid turns liquid. `COc1cc2c(cc1-c1c(C)noc1C)cc(C)c(=O)n2Cc1ccccn1` [amorphous compound (I), 6-(3,5-Dimethylisoxazol-4-yl)-7-methoxy-3-methyl-1-(pyridin-2-ylmethyl)quinolin-2(1H)-one] came in with a melting point of 180 °C.
